In paper PMC5717258, “Bioaccumulation of pharmaceuticals and personal care product chemicals in fish exposed to wastewater effluent in an urban wetland” (Scientific Reports, 2017):
Read-outs that look alike come from different tables or passages of the source.

What was measured:
in vivo = conditions: for concentration at 21 days: goldfish (Carassius auratus), in vivo
Excerpt: Cages were visited weekly, and fish (13/cage) were fed during the visits (20 g/cage). All animal experiments were in accordance with CCAC guidance and approved by the GLLFAS-WSTD Animal Care Committee (Government of Canada). Further details on the caging and preparation of the fish and animal care protocols are provided in Simmons et al.[32]. […] A fourth site, Jordan Harbour (JH), a widening of 20 Mile Creek adjacent to Lake Ontario near Jordan ON, served as a reference site. Mass and fork length were measured and recorded. Plasma collection and storage is described in the SI. Plasma of caged goldfish was divided for proteome, metabolome and PPCP analysis. Due to limited volumes, pooled samples of plasma from 25 individual fish (50 µL/individual) was pooled to yield one sample from at each location for PPCP analysis.
(§1) A total of 20 fish plasma samples from the pooled caged fish (7) and the wild fish (13) along with 12 water samples were selected for analysis. […] A full list of analytes is provided in Supplementary Information. Mass labelled^13C-, or deuterated surrogate internal standards were used for quantification of all analytes via the isotope dilution/surrogate standard quantitation method. Prior to extraction and/or clean-up procedures, aqueous samples were adjusted to pH 2.0, spiked with extraction surrogate standards, then adjusted to pH 4 using tetrasodium ethylenediamine-tetraacetate dihydrate. Plasma samples (2.3–2.5 g) were spiked with extraction surrogate standards, sonicated with 20 mL acetonitrile, then diluted with ultra-pure water to 200 mL. The extracts were cleaned up by solid phase extraction using Oasis HLB cartridges (Waters Ltd. Mississauga ON), filtered, and analyzed by liquid chromatography-electrospray ionization-tandem mass spectrometry (LC/ESI-MS/MS) in positive or negative ionization mode. The analysis of the complete list of analytes (SI Table S1) required a total of five instrumental runs.
(§2) Quality assurance steps included analysis of lab blanks for water and plasma along with matrix recovery spikes. […] Detection limits (DLs) were defined as lowest calibration level adjusted to the maximal sample size or 3 times the signal of the noise in the target channel converted to an equivalent sample, whichever was greater. […] Where analytes were detected in two or more samples of the same species or series of water samples, non-detect values were converted to ½ the DL value for reporting purposes.

[1] = for plasma concentration, CPM-C 01: Cootes carp 01, 2011, male; for plasma concentration, CPM-C 2: Cootes carp 2, Sep 27, 2011, male; for plasma concentration, CPM-C 10: Cootes carp 10, Sep 28, 2011, female; for plasma concentration, CPM-C 20: Cootes carp 20, 2011, male; for plasma concentration, JH-C 54: Jordan Harbour carp 54, Nov 7, 2011, male; for plasma concentration, JH-C 73: Jordan Harbour carp 73, Nov 7, 2011, female; for plasma concentration, JH-C 74: Jordan Harbour carp 74, Nov 7, 2011, male; for plasma concentration, JH-C 75: Jordan Harbour carp 75, Nov 7, 2011, female; for plasma concentration, JH-C 78: Jordan Harbour carp 78, Nov 7, 2011, male; for plasma concentration, JH-C 82: Jordan Harbour carp 82, Nov 7, 2011, female
Experimental: (§3) Plasma from 9 individual male fish (500 µL/individual) was pooled to yield 3 samples for PPCP analysis. […] Plasma from 6 individual carp (2.3–3.5 g) from each location was selected for PPCP analysis. […] Plasma samples were frozen (−80 °C) until analysis.
as §1, §2

[2] = parameters: method as in US EPA Chemistry Dashboard; conditions: ref US EPA Chemistry Dashboard; cited from earlier work
[3] = cited from earlier work; for Salmon (whole body) concentration: Table S7, ref Meador et al. (2016); for whole fish concentration, salmon: ref Meador et al. 18
[4] = Jordan Harbour brown bullhead, wet weight
Experimental: as §3, §1

[5] = Plasma bioaccumulation factor (BAFP), carp; format: in vivo, carp (Cyprinus carpio)
Experimental: (§4) Bioaccumulation factor (BAFP) was calculated as concentration in fish plasma (ng/g × 1000) divided by concentration in water (ng/L). Two widely used modeling approaches for predicting organic contaminant bioaccumulation were assessed: the BCF-BAF model for whole body BAFs[53] and the fish-plasma concentration calculation of Huggett et al.[35] modified by Berninger et al.[54]. The latter involves estimating an octanol-water partition coefficient (Kow) adjusted for fraction ionized (log D), using the pKa value to adjust log Kow[54] taking into account the pH of CPM waters. Further information on the calculation of log D, blood-water partitioning (PBW), and plasma concentrations (FPC) is given in the SI.

[6] = cited from earlier work
[7] = Plasma bioaccumulation factor (BAFP), goldfish; format: in vivo, goldfish (Carassius auratus); conditions: for BAFP, CPM2 goldfish caged: water sample of August 2012
Experimental: as §4

[8] = cited from earlier work; for Sculpin (whole body) concentration: Table S7, ref Meador et al. (2016); for whole fish concentration, sculpin: ref Meador et al. 18
[9] = cited from earlier work; for BAFP: treated WWTP effluent from two Swedish cities
[10] = cited from earlier work; remark: listed apart in the source
[11] = cited from earlier work; remark: listed apart in the source
[12] = conc in fish plasma/conc in water
[13] = range based on range of plasma concentrations
[14] = male, goldfish (Carassius auratus), in vivo

## CCN(CC)C(=O)c1cccc(C)c1 [DEET, N,N-Diethyl-m-toluamide]
In vivo; CPM1, 07-2014, pooled plasma, wet weight
  plasma concentration, CPM1 caged: 0.416 ng/g
In vivo; CPM2, 07-2014, pooled plasma, wet weight
  plasma concentration, CPM2 caged: 0.41 ng/g
In vivo; CPM3, 07-2014, pooled plasma, wet weight
  plasma concentration, CPM3 caged: 0.314 ng/g
In vivo; Cootes Paradise Marsh, range
  caged goldfish plasma, range of concentrations: 0.23 to 0.58 ng/g
In vivo; Jordan Harbour reference site, 07-2014, pooled plasma, wet weight
  plasma concentration, JH caged: 0.235 ng/g
[1]; Cootes Paradise Marsh, range
  Cootes carp plasma, range of concentrations: 0.19 to 1.15 ng/g
  wild goldfish plasma, range of concentrations: 0.31 to 0.42 ng/g
[1]; wet weight
  plasma concentration, CPM-C 01: 0.194 ng/g
  plasma concentration, CPM-C 2: 1.09 ng/g
  plasma concentration, CPM-C 10: 1.15 ng/g
  plasma concentration, CPM-C 20: 0.35 ng/g
  plasma concentration, JH-C 54: 0.331 ng/g
  plasma concentration, JH-C 73: 0.083 ng/g
  plasma concentration, JH-C 74: 0.494 ng/g
  plasma concentration, JH-C 75: 0.914 ng/g
  plasma concentration, JH-C 78: 1.09 ng/g
  plasma concentration, JH-C 82: 0.865 ng/g
[1]; Cootes carp 13, Sep 28, 2011, female, wet weight
  plasma concentration, CPM-C 13: 1.1 ng/g
[1]; Cootes carp 36, Oct 3, 2011, female, wet weight
  plasma concentration, CPM-C 36: 0.743 ng/g
[1]; Jordan Harbour, carp vs caged goldfish
  plasma concentration, fold higher in carp plasma than in goldfish: about 2 fold
[1]; Table S7
  Carp plasma concentration, this study (range): 0.19 to 1.15 ng/g
  Goldfish plasma concentration, this study (range): 0.23 to 0.58 ng/g
[1]; Table S8
  plasma concentration, carp, this study (mean): 0.77 ng/g wet weight or ng/mL for plasma
  plasma concentration, goldfish, this study (mean): 0.46 ng/g wet weight or ng/mL for plasma
[1]; wild goldfish sample 01, 2012, wet weight
  plasma concentration, CPM wild-01: 0.234 ng/g
[1]; wild goldfish sample 02, 2012, wet weight
  plasma concentration, CPM wild-02: 0.584 ng/g
[1]; wild goldfish sample 03, 2012, wet weight
  plasma concentration, CPM wild-03: 0.56 ng/g
[2]
  log Kow: 2.18
[3]
  Salmon (whole body) concentration: 0.39 to 1.6 ng/g
  whole fish concentration, salmon: 0.39 - 1.6 ng/g wet weight or ng/mL for plasma
[4]
  plasma concentration, JH-BB: 2.59 ng/g
[5]; Jordan Harbour
  BAFP at JH, carp, average: 32 L/kg
  BAFP at JH, carp, range: 4 to 51 L/kg
[5]; [12]
  BAFP at CPM3, carp, average: 15 L/kg
[5]; [13]
  BAFP at CPM3, carp, range: 4 to 22 L/kg
[6]
  BAFP in carp plasma, median: < 6.2
[7]
  BAFP, CPM1 goldfish caged: 4 L/kg
  BAFP, CPM2 goldfish caged: 4 L/kg
[7]; CPM3
  BAFP, CPM3 goldfish caged: 4 L/kg
[7]; Jordan Harbour
  BAFP, JH goldfish caged: 9 L/kg
[7]; [12]
  BAFP at CPM3, wild goldfish, average: 9 L/kg
[7]; [13]
  BAFP at CPM3, wild goldfish, range: 4 to 11 L/kg
[8]
  Sculpin (whole body) concentration: 0.41 to 2.2 ng/g
  whole fish concentration, sculpin: 0.41 - 2.2 ng/g wet weight or ng/mL for plasma

## CC(C)Cc1ccc(C(C)C(=O)O)cc1 (stereo not drawn) [Ibuprofen]
[1]; wet weight
  plasma concentration, CPM-C 01: < 3.16 ng/g
  plasma concentration, CPM-C 2: < 4.31 ng/g
  plasma concentration, CPM-C 10: < 4.53 ng/g
  plasma concentration, CPM-C 20: < 3.23 ng/g
  plasma concentration, JH-C 54: < 3.18 ng/g
  plasma concentration, JH-C 73: < 3.09 ng/g
  plasma concentration, JH-C 74: < 3.19 ng/g
  plasma concentration, JH-C 75: < 4.52 ng/g
  plasma concentration, JH-C 78: < 3.13 ng/g
  plasma concentration, JH-C 82: < 3.01 ng/g
[9]
  BAFP: 21–58
[4]
  plasma concentration, JH-BB: < 5.7 ng/g

## O=C1Nc2ccc(Cl)cc2C(c2ccccc2)=NC1O (stereo not drawn) [Oxazepam]
[9]
  BAFP: 0.7–3.6

## CN[C@H]1CC[C@@H](c2ccc(Cl)c(Cl)c2)c2ccccc21 [Sertraline]
[2]
  log Kow: 5.29
[9]; ref Fick et al. 12
  plasma concentration, rainbow trout: 0.30-2.4 ng/g wet weight or ng/mL for plasma
[10]; human, converted from µg/mL, ref Schulz et al.[56]
  Therapeutic "normal" blood-plasma/serum concentration: 50 to 250 ng/mL
[10]; human, ref Schulz et al.[56]
  toxic dose (toxic blood-plasma/serum concentration): 290 ng/mL
[10]; ref Berninger & Brooks[60]
  Cmax (human therapeutic dose): 290 ng/mL
[3]
  Salmon (whole body) concentration: 17 ng/g
  whole fish concentration, salmon: 17 ng/g wet weight or ng/mL for plasma
[6]
  BAFP in carp plasma, median: 8.9
[6]; mean ± SD, ref Tanoue et al.16
  plasma concentration, crucian carp & common carp: 0.21±0.18 ng/g wet weight or ng/mL for plasma
[7]
  BAFP, CPM1 goldfish caged: 50 L/kg
  BAFP, CPM2 goldfish caged: 27 L/kg
[8]
  Sculpin (whole body) concentration: 0.2 ng/g
  whole fish concentration, sculpin: 0.2 ng/g wet weight or ng/mL for plasma

## Cc1cc(C)nc(NS(=O)(=O)c2ccc(N)cc2)n1 [Sulfamethazine]
In vivo; caged goldfish plasma, range of concentrations
  concentration at 21 days: 0.06 to 0.17 ng/g
In vivo; plasma concentration, CPM1 caged
  concentration at 21 days: < 0.244 ng/g
In vivo; plasma concentration, CPM2 caged
  concentration at 21 days: < 0.165 ng/g
In vivo; plasma concentration, CPM3 caged
  concentration at 21 days: < 0.123 ng/g
In vivo; plasma concentration, JH caged
  concentration at 21 days: < 0.12 ng/g
[1]; in vivo
  plasma concentration, carp, this study (mean): < mdl
[1]; [14]
  plasma concentration, CPM wild-01: 0.166 ng/g
  plasma concentration, CPM wild-02: 0.084 ng/g
  plasma concentration, CPM wild-03: 0.066 ng/g
  plasma concentration, goldfish, this study (mean): 0.11 ng/g wet weight or ng/mL for plasma
[2]
  log Kow: 0.19
[11]; ref Zhao et al. 15
  plasma concentration, carp and tilapia: 6.47 ng/g wet weight or ng/mL for plasma
[11]; tilapia and carp species in southern China
  log BAFP: 1.92–4.18
[7]; goldfish and carp
  log BAFP, goldfish and carp in this study: 1.53–2.73
